Assay results published in publication PMC10622577, “Structural basis for stabilisation of the RAD51 nucleoprotein filament by BRCA2” (Nature Communications, 2023).

Tests used:
[1] = tested on: RAD51 NPFs on DNA capped at both ends with mSA; experiment: EMSA of TR2 binding to RAD51 NPFs on mSA-capped DNA; design: species or system human; conditions: doubly-biotinylated ss- and dsDNA, mSA in 5× molar excess of biotin labels; SYBR Gold; two independent repeats
Excerpt: (§1) To understand the structural basis for the association of the BRCA2 C-terminus with the RAD51 nucleoprotein filament, we sought to determine the structure of a RAD51-DNA-TR2 filament by high-resolution cryo-electron microscopy (cryoEM). […] Individual filaments within a bundle appeared to be in translational register relative to each other as it was possible to obtain well-resolved 2D classes of filament pairs (Supplementary fig. 5A, Supplementary Table 1). Filament aggregation induced by TR2 complicated picking of individual filament particles and prevented structural determination by cryoEM. We therefore sought to develop a method to prepare RAD51 NPFs in the presence of TR2 peptide without causing filament bundling. We reasoned that bundling might be alleviated by capping the DNA substrate with a bulky tag, to prevent filament aggregation by steric interference. We therefore prepared ss- and dsDNA substrates with a biotin tag at either one end or both ends, that could be bound by monomeric streptavidin (mSA) (Supplementary Fig. 5B, Supplementary Table 1).
Fig. 2 BRCA2 TR2 induces bundling of RAD51 nucleoprotein filaments. […]
Before electrophoresis, samples were mixed with a 0.5:1 volume of 50% (w/v) sucrose solution and analysed on a pre-run 0.5% (w/v) agarose gel in 0.5× TB buffer at 35 V for 2.5 hours at 4 °C. […]

wild-type RAD51 NPFs = experiment: EMSA of TR2 titration on wild-type RAD51 nucleoprotein filaments (NPFs); type: binding, human
Protocol: To assess RAD51 nucleoprotein (NPF) formation, wild-type and mutant RAD51 proteins were incubated with DNA in buffer: 25 mM HEPES pH 7.5, 150 mM NaCl, 2 mM DTT, 2 mM ATP, 5 mM CaCl2 for 15 minutes at room temperature. For filament binding of the TR2 peptide or His6-MBP-TR2 protein, the RAD51 NPFs were incubated with TR2 for further 5 minutes at room temperature. For filament binding of BRC4, the BRC4 peptide was pre-mixed with RAD51 for 10 minutes at room temperature before addition of DNA. For experiments with mono-streptavidin (mSA)-capped DNA, mSA (Sigma) was added in 5× molar excess of biotin labels for 15 minutes at room temperature prior to the addition of RAD51. Concentrations are provided in figures and DNA sequences for each experiment are reported in Supplementary Table 1.
Before electrophoresis, samples were mixed with a 0.5:1 volume of 50% (w/v) sucrose solution and analysed on a pre-run 0.5% (w/v) agarose gel in 0.5× TB buffer at 35 V for 2.5 hours at 4 °C. DNA was visualised by excitation of the fluorescent tag or, in the case of unlabelled DNA, by SYBR Gold staining. Gels were imaged in a Typhoon FLA9000 by excitation at 473 nm for fluorescein-labelled DNA or SYBR Gold-stained gels, 532 nm excitation for Cy3-labelled DNA or 635 nm excitation for Cy5-labelled DNA.
Supplementary table 1. DNA oligos and peptides
Oligos Size (nt) Sequence (5’ – 3’)
D184A […] (forward), […]

[2] = tested on: RAD51 NPFs on mSA-capped DNA; experiment: cryo-electron micrographs, bundling of RAD51 NPFs on mSA-capped DNA; design: species or system human; conditions: 1:0.5 molar ratio of TR2 peptide and mSA; ss- and dsDNA; two independent repeats
Excerpt: as §1
Fig. 2 BRCA2 TR2 induces bundling of RAD51 nucleoprotein filaments. A Cryo-electron micrographs of RAD51 NPFs formed on ssDNA and dsDNA in the presence of 1:0.5 molar ratio of TR2 peptide. Extensive NPF aggregation into bundles of aligned filaments is clearly visible (examples marked with dashed white boxes). Two independent repeats. […]

## DDQKNCKKRRALDFLSRLPLPPPVSPICTFVSPAAQKAFQPPRSCGTKY [TR2, BRCA2 TR2 peptide spanning amino acids 3260 to 3308]
[1]
  TR2 binding by RAD51 NPFs on mSA-capped DNA: competent to bind the TR2 peptide
wild-type RAD51 NPFs; 25 mM HEPES pH 7.5, 150 mM NaCl, 2 mM DTT, 2 mM ATP, 5 mM CaCl2, RAD51 + DNA 15 min, then TR2 5 min, room temperature, 0.5% agarose, fluorescein-labelled 60 nt ss- or dsDNA, ssDNA performed twice, dsDNA once
  TR2 binding to wild-type RAD51 NPFs (filament formation and mobility): enhancement of filament formation accompanied by formation of larger species of reduced electrophoretic mobility
wild-type RAD51 NPFs; EMSA Fig. 1C, authors' response to reviewers
  bundling of TR2-bound filaments in the gel: do not show bundling
[2]
  bundling of RAD51 NPFs on mSA-capped DNA: no bundling in the presence of TR2
